Reference: PMC12484522, “Neuroprotective effects of chemical constituents from Nicotiana tabacum L. in Parkinson’s disease” (Natural Products and Bioprospecting, 2025)
Entries after “also recorded” stand apart in the source; their conditions may differ. Where two headings read alike, the source gives them in different places. Each block holds one compound with its values, some of them ahead of it.

Experiments:
[1] = molecular target: T1, MAO-B (Homo sapiens, UniProt P27338); experiment: MAO-B inhibition assay (kynuramine, fluorescence); type: biochemical
T1 sequence (P27338 1-520): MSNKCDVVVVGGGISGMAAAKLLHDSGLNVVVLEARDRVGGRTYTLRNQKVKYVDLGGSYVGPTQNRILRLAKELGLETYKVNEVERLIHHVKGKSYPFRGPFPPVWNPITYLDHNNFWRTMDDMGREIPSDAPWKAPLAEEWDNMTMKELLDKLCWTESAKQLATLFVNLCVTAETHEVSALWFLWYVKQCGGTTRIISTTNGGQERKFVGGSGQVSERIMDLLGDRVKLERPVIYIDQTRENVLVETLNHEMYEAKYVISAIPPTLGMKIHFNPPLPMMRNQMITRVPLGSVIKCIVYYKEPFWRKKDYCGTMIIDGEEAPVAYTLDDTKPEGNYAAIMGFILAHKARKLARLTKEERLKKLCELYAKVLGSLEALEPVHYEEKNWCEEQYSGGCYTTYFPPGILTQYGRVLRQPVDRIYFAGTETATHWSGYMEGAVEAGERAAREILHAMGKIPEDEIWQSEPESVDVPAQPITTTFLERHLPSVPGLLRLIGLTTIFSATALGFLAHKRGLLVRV
Protocol: In preparing the microplates, 50 μL of MAO-B (2.5 U/mL) was combined with 100 μL of the test compounds at different concentrations. This mixture was incubated at 37 °C for 10 min. […] Next, 50 μL of kynuramine (0.2 mM) sourced from Macklin in Shanghai, China, was added to the mixture. The resulting mixture was incubated at 37 °C for an additional 30 min. The reaction was halted by adding 80 μL of 2 N NaOH. Ultimately, the enzyme activity was measured using a microplate reader, with the excitation and emission wavelengths set at 310 nm and 400 nm, respectively.

[2] = ABTS+ radical scavenging assay; conditions: for IC50: read-out: ABTS+ IC50 (μM) ± SD
Protocol: Various concentrations of the compounds (60 μL each) were then combined with 150 μL of the diluted ABTS^+ solution. The reaction was maintained in the dark at 30 °C for 6 min. Afterwards, the absorbance was determined at 734 nm with a microplate reader. The calculation of ABTS radical scavenging activity followed the same method as for DPPH radical scavenging activity. IC50 values were determined using GraphPad Prism 7.0, and all tests were conducted in triplicate.

[3] = DPPH radical scavenging assay; conditions: for IC50: read-out: DPPH IC50 (μM) ± SD
Protocol: The antioxidative capacity of the obtained compounds was carried out through DPPH radical scavenging assays and ABTS assay (Macklin, Shanghai, China) with some modifications, and Vitamin C was used as the positive control. In the DPPH assay, 60 μL of the isolates at varying concentrations were mixed with 100 μL of 100 μM DPPH solution in ethanol in a 96-well microplate. The mixture was shaken for 10 s and then allowed to sit in darkness at 30 °C for 5 min. Subsequently, the absorbance was determined using a microplate reader at a wavelength of 517 nm. The radical-scavenging activity of the compounds was assessed using the formula RSA (%) = [(AB-AA)/AB] × 100%, where AA was the absorbance of the sample and AB was the absorbance of the blank sample. The IC50 value was calculated with GraphPad Prism 7.0, and all experiments were conducted in triplicate.

[4] = test system: PC12 cell; experiment: Cytotoxicity experiment on PC12 cells; type: cell-based; conditions: 0.5–100 μM
[5] = test system: 6-OHDA-induced PC12 cells; experiment: Neuroprotective effect in 6-OHDA-induced PC12 cells (CCK-8 cell viability); type: cell-based
Protocol: Two-dimensional (2D) cell culture models were used for performing cell viability assays. Approximately 10,000 PC12 cells (Fenghui, Changsha, China) were seeded into each well of a 96-well plate. The cells underwent pre-treatment with the test compounds for 2 h at 37 °C. […] The plate was incubated at 37 °C for 1 h after adding 10 μL of CCK-8 solution (ProteinTech, Chicago, USA) to each well. Then, each well's optical density (OD) was measured at 450 nm using a multimode microplate reader (Waltham, MA, USA).

[6] = molecular target: murine MAO-B; design: method as in PMID 26796202; conditions: cited from earlier work
[7] = molecular target: human MAO-B; design: method as in PMID 26796202; conditions: selective and reversible inhibition; cited from earlier work
[8] = test system: MAO-B over MAO-A; conditions: cited from earlier work
[9] = test system: dopamine levels and striatal DOPAC; design: method as in PMID 26796202; conditions: intraperitoneal, 80 mg/kg; cited from earlier work
[10] = molecular target: T1, MAO-B; experiment: Kinetic studies of MAO-B inhibition (Lineweaver–Burk plots); type: biochemical
Protocol: The kinetic study of MAO-B inhibition was the Lineweaver–Burk plot, which was performed using the Lineweaver–Burk curve method. […] Kinetic characterization of their MAO-B inhibition was recorded 20 min after initiation. Constants Kis and Ki were calculated using the Lineweaver–Burk plots.

[11] = MAO-B, 50 μM, read-out: Inhibition rate ± SD (%) (50 μM)
[12] = MAO-B, dose–response, read-out: IC50 (μM) ± SD

Compound: CC(C)c1cc2c(cc1O)[C@@]1(C)CCCC(C)(C)[C@@H]1C=C2 [Compound 9, 6,7-dehydroferruginol]
- inhibition at 50 µM [1, 11]: 7.04 ± 4.08%

Compound: C=C(C)/C=C/[C@@H](CC/C(C)=C/CC/C(C)=C/C=O)C(C)C [Compound 2, 2,6,11,13-tetradecatetraenal-3,7,13-trimethyl-10-(1-methylethyl)]
- inhibition at 50 µM [1, 11]: 11 ± 3.99%

Compound: isoferulic acid [Compound 6]
- ABTS+ RSA ± SD (50 μM) [2]: 92.90 ± 0.45%
- IC50 [2]: 18.1 ± 2.49 µM
- DPPH RSA ± SD (50 μM) [3]: 36.00 ± 1.01%
- IC50 [3]: 152 ± 1.75 µM

Compound: CC/C=C\C/C=C\C/C=C\CCCCCC(=O)OC [Compound 14, Methyl (7Z,10Z,13Z)-7,10,13-hexadecatrienoate]
- inhibition at 50 µM [1, 11]: > 30%
- IC50 [1, 12]: 201 ± 7.03 µM
- Cytotoxicity [4]: extremely low cytotoxicity
- Neuroprotective effect at various concentrations ([5]; 0.5–100 μM): enhanced cell viability across all tested concentrations, except 50 μM
- viability at 5 µM ([5]; Rattus norvegicus, PC-12, 5 μM (best concentration)): 93.9%
- viability at 100 µM ([5]; Rattus norvegicus, PC-12, 100 μM, model group 63.58%): 87.1%

Compound: C#CCN[C@@H]1CCc2ccccc21 [Rasagiline, rasagiline, reference compound]
- Cell viability ([5]; positive control, abstract: at equivalent concentrations): 88.36%

Compound: CC(C)c1cc2c(cc1O)[C@@]1(C)CCCC(C)(C)[C@@H]1CC2 [Compound 8, ferruginol]
- inhibition at 50 µM ([1]; read-out: Inhibition rate ± SD (%) (50 μM), MAO-B, 50 μM): 17.5 ± 1.5%

Compound: COc1cc2ccc(=O)oc2cc1O [Compound 3, scopoletin]
- Ki [6]: 22 µM
- Ki [7]: 20.7 µM
- ABTS+ RSA ± SD (50 μM) [2]: 68.91 ± 1.75%
- IC50 [2]: 27.7 ± 1.2 µM
- IC50 [1]: 40.2 ± 1.21 µM
- Selectivity for MAO-B over MAO-A [8]: approximately 3.5 fold
- Dopamine levels [9]: significantly elevated
- Striatal metabolite 3,4-dihydroxyphenylacetic acid (DOPAC) [9]: reducing
- Inhibition mechanism against MAO-B [10]: non-competitive inhibitor
- Ki ([10]; MAO-B, read-out: Ki value (equilibrium constant for inhibitor-enzyme binding)): 78.8 µM

Compound: CCC1=C(/C=C/C(O)CCCCCCCC(=O)OC)CCC1=O (stereo not drawn) [10/11, phytoprostanes B1 type II]
- IC50 [1, 12]: 37.7 ± 1.57 µM
- Inhibition mechanism against MAO-B [10]: competitive MAO-B inhibitors; also recorded: competitive inhibition mechanism

Compound: COc1cc(C(=O)CCO)ccc1O [Compound 21, β-hydroxypropiovanillone]
- ABTS+ RSA ± SD (50 μM) [2]: 36.36 ± 1.01%
- IC50 [2]: 348 ± 17.5 µM
- inhibition at 50 µM ([1]; read-out: Inhibition rate ± SD (%) (50 μM)): 11.2 ± 1.81%

Compound: CC(=O)/C=C/C/C(C)=C/CC/C(C)=C/CC/C(C)=C/CC/C(C)=C/CO [Compound 1, Nicotiazanorpenoid A]
- inhibition at 50 µM [1, 11]: 15.4 ± 8.16%

Now from value to compound, other results behind:

- inhibition at 50 µM [1, 11]: 1.05 ± 3.46%
Compound: O=C1C=CCCN1 [Compound 22, 5,6-dihydropyridin-2(1H)-one]

- inhibition at 50 µM [1, 11]: 14.4 ± 4.04%
Compound: OCCc1ccccc1 [Compound 7, 2-phenylethanol]

- inhibition at 50 µM [1, 11]: 18 ± 4.32%
Compound: CCCCC/C=C\C/C=C\CCCCCCCC(=O)O [Compound 15, linolic acid]

- IC50 [2]: 60.5 ± 1.18 µM
- inhibition at 50 µM [1, 11]: 2.98 ± 2.8%
Compound: COc1cc(CCO)ccc1O [Compound 20, homovanillic alcohol]
- ABTS+ RSA ± SD (50 μM) [2]: 57.38 ± 1.01%

- inhibition at 50 µM [1, 11]: 24 ± 8.05%
Compound: CC1=CC(=O)CC(C)(C)[C@H]1/C=C/[C@@H](C)O [Compound 5, (6R,9S)-3-oxo-α-ionol]

- inhibition at 50 µM [1, 11]: 16.5 ± 7.04%
Compound: CC1=CC(=O)CC(C)(C)[C@H]1CC[C@@H](C)O [Compound 4, blumenol C]

- inhibition at 50 µM [1, 11]: 22.2 ± 5.24%
Compound: COCc1ccc(C=O)[nH]1 [Compound 16, 5-(methoxymethyl)-1H-pyrrole-2-carboxaldehyde]

- inhibition at 50 µM [1, 11]: 8.29 ± 3.9%
Compound: O=C(O)c1ccc(O)cc1 [Compound 18, paraben-acid]

- IC50 [2]: 14.46 ± 0.03 µM
- IC50 [3]: 9.12 ± 0.25 µM
Compound: O=C1O[C@H]([C@@H](O)CO)C(O)=C1O [Vitamin C, ascorbic acid, reference compound]
- ABTS+ RSA ± SD (50 μM) [2]: 99.80 ± 0.09%
- DPPH RSA ± SD (50 μM) [3]: 99.97 ± 0.05%

- inhibition at 50 µM [1, 11]: 17.1 ± 5.06%
Compound: COC(=O)c1ccc(O)cn1 [Compound 17, methyl 5-hydroxypicolinate]

- IC50 [2]: 84.06 ± 0.76 µM
- inhibition at 50 µM [1, 11]: 3.71 ± 4.89%
Compound: COc1cc(C(CO)OC)ccc1O (stereo not drawn) [Compound 19, 4-hydroxy-β,3-dimethoxybenzeneethanol]
- ABTS+ RSA ± SD (50 μM) [2]: 59.17 ± 3.59%
